Reference: patent US8415296B2, “Oxyntomodulin peptide analogue” (Eli Lilly and Company, priority 2009, dated 2013)
Marks after values point to notes of the source that are not given here.

Legend:
Assay type in all cases: in vivo
[1] = Food intake, body weight and body composition in diet-induced obese (DIO) mice; settings: for reduction of cumulative food intake compared to the vehicle group: end of 2-week study; for Fat mass loss (g fat weight change for 14 days) / Overall weight loss (g weight change for 14 days) / Total food intake (g total for 14 days): mean ± SEM
Experimental: Three to four months old male diet-induced obese (DIO) mice are individually housed in a temperature-controlled (24° C.) facility with a 12 hour light/dark cycle (lights on 22:00), and have free access to food and water. After 2 weeks acclimation to the facility, mice are randomized to treatment groups (n=8-10/group), each group having similar mean body weight and fat mass. Mice are subcutaneously (sc) injected with vehicle solution and weighed for 2 days to acclimate them to the procedures.
Body weight and the weight of food plus the hopper are measured at the same time. Food consumed in the preceeding 24 hours is calculated by subtracting current weight of food plus the hopper from that of the previous day. Absolute changes in body weight are calculated by subtracting the body weight of the animal prior to the first injection. On days 1 and 14 total fat mass is measured by nuclear magnetic resonance (NMR) using an Echo Medical System (Houston, Tex.) instrument. Fat free mass is calculated by subtracting fat mass from total body weight.

[2] = Intraperitoneal glucose tolerance test in lean mice; settings: IPGTT; for Glucose AUC, MEAN: 0 to 30 min; for Insulin AUC, MEAN: plasma insulin 0 to 30 min
Experimental: Nine week old male C57BL/6 mice are used in the study Animals are randomized into groups based on fed body weight. […] Food is removed at the time of injection of peptide or vehicle. At time 0, animals are given 2 g/kg dextrose by IP injection. Blood is collected by tail vein bleeding at 0, 3, 6, 12 and 30 minutes after glucose challenge. Glucose concentration is measured by glucometer. Insulin is measure by Mesoscale.

[3] = Oral glucose tolerance test in ob/ob mice; settings: for Glucose AUC, MEAN: OGTT, 0 to 120 min
Experimental: (§1) Two to three months old male ob/ob mice are individually housed in a temperature-controlled (24° C.) facility with a 12 hour light/dark cycle (lights on 2200 hours), and have free access to food and water. After at least 2 weeks of acclimation to the facility, 3-hours fasting blood glucose is measured by tail vein bleeding at 9 AM. Mice with blood glucose under 180 mg/dL are not used. Remaining animals are randomized to treatment groups (N=7/group), each group having similar average blood glucose level. The mice are given access to food until the time of injection. […] Food is removed at the time of injection. An OGTT (Table 7) or IPGTT (Table 8) is performed 16 hours after the peptide injection. At time 0, animals are given 2 g/kg dextrose by oral gavage (Table 7) or intraperitoneal injection (Table 8). Blood is collected by tail vein bleeding at 0, 15, 30, 60 and 120 minutes after glucose challenge. Blood glucose concentration is measured by glucometer.

[4] = Intraperitoneal glucose tolerance test in ob/ob mice; settings: IPGTT, 0 to 120 min, 7.5 nmole/kg 16 hours before
Experimental: as §1

[5] = Oral glucose tolerance test after 2-week treatment in DIO mice; settings: for Glucose AUC, MEAN: oral glucose load 2 g/kg, 0 to 120 min
Experimental: (§2) Fifty-six hours after the fifth injection as described in Example 7 in DIO mice, mice are fasted for 16 hours prior to the start of the glucose tolerance test. At time 0, animals are given 2 g/kg dextrose by oral gavage (Table 3, Study 1) or intraperitoneal (IP) injection (Table 4, Study 2). Blood is collected by tail vein bleeding at 0, 15, 30, 60 and 120 minutes after glucose challenge. Glucose concentration is measured by glucometer.

[6] = Intraperitoneal glucose tolerance test after 2-week treatment in DIO mice; settings: ip glucose load 2 g/kg, 0 to 120 min
Experimental: as §2

[7] = Study 1, DIO mice, 7.5 nmole/kg sc every 3 days
[8] = Study 1, DIO mice, 15 nmole/kg sc every 3 days
[9] = Study 1, DIO mice, 30 nmole/kg sc every 3 days
[10] = Study 2, DIO mice, 7.5 nmole/kg sc every 3 days
[11] = Study 2, DIO mice, 22.5 nmole/kg sc every 3 days

His-(D-Ser)-Gln-Gly-Thr-Phe-Thr-Ser-Asp-(1-Nal)-Ser-Lys-Tyr-Leu-Asp-Glu-Lys-Ala-Ala-Gln-Glu-Phe-Val-Gln-Trp-Leu-Leu-Asn-(Aib)-Ala-Arg-Asn-Arg-Asn-Asn-Ile-Ala-Cys(20 kDa PEG)-Cys(20 kDa PEG)
cumulative weight loss compared to the vehicle group ([1]; Study 1, 7.5 nmole/kg every 3 days, 2 weeks): about 6%
vehicle controlled cumulative weight loss ([1]; Study 1, 15 nmole/kg every 3 days, 2 weeks): 10%
reduction of cumulative food intake compared to the vehicle group ([1]; Study 1, 15 nmole/kg): 21%
vehicle controlled cumulative weight loss ([1]; Study 1, 30 nmole/kg every 3 days, 2 weeks): 15%
reduction of cumulative food intake compared to the vehicle group ([1]; Study 1, 30 nmole/kg): 27%
Fat mass loss (g fat weight change for 14 days) [1, 7]: -1.1 ± 0.3 g
Overall weight loss (g weight change for 14 days) [1, 7]: -1.7 ± 0.3 g
Total food intake (g total for 14 days) [1, 7]: 36.5 ± 1.2 g
Fat mass loss (g fat weight change for 14 days) [1, 8]: -2.7 ± 0.2 g
Overall weight loss (g weight change for 14 days) [1, 8]: -3.5 ± 0.3 g
Total food intake (g total for 14 days) [1, 8]: 31.4 ± 0.9 g
Fat mass loss (g fat weight change for 14 days) [1, 9]: -4.0 ± 0.3 g
Overall weight loss (g weight change for 14 days) [1, 9]: -5.6 ± 0.4 g
Total food intake (g total for 14 days) [1, 9]: 29.0 ± 1.3 g
Fat mass loss (g fat weight change for 14 days) [1, 10]: -1.6 ± 0.2 g
Overall weight loss (g weight change for 14 days) [1, 10]: -2.5 ± 0.3 g
Total food intake (g total for 14 days) [1, 10]: 33.3 ± 0.6 g
Fat mass loss (g fat weight change for 14 days) [1, 11]: -3.8 ± 0.2 g
Overall weight loss (g weight change for 14 days) [1, 11]: -5.2 ± 0.2 g
Total food intake (g total for 14 days) [1, 11]: 28.7 ± 0.6 g
decrease of body weight ([1]; Study 2, high dose (22.5 nmole/kg) every 3 days, 2 weeks): ~10%
decrease of body weight ([1]; Study 2, low dose (7.5 nmole/kg) every 3 days, 2 weeks): about 5%
Glucose AUC, MEAN ([2]; 5 nmole/kg 16 hours before): 6287* mg*min/dL
Glucose AUC, MEAN ([2]; 15 nmole/kg 16 hours before): 6881* mg*min/dL
Insulin AUC, MEAN ([2]; 5 nmole/kg): 33.29* ng*min/mL
Insulin AUC, MEAN ([2]; 15 nmole/kg): 58.32* ng*min/mL
Glucose AUC, MEAN ([3]; 7.5 nmole/kg 16 hours before): 12103* mg*min/dL
Glucose AUC, MEAN ([3]; 15 nmole/kg 16 hours before): 14837* mg*min/dL
blood glucose in ob/ob mice ([3]; single injection): normalized blood glucose
Glucose AUC, MEAN [4]: 16944* mg*min/dL
blood glucose at all time points before and after the oral glucose challenge vs vehicle ([5]; all doses): significantly lowered
Glucose AUC, MEAN ([5]; 7.5 nmole/kg): 13802* mg*min/dL
Glucose AUC, MEAN ([5]; 15 nmole/kg): 12668* mg*min/dL
Glucose AUC, MEAN ([5]; 30 nmole/kg): 13056* mg*min/dL
Glucose AUC, MEAN ([6]; 7.5 nmole/kg): 19198* mg*min/dL
Glucose AUC, MEAN ([6]; 22.5 nmole/kg): 15720* mg*min/dL
